Where two headings read alike, the source gives them in different places.
How the values were obtained:
[1] = biological target: T1, NR2B-subtype NMDA receptors (Rattus norvegicus, UniProt P35439+Q00960); experiment: Radioligand binding assay (3H Ro 25-6981 competition); conditions: rat forebrain membranes, 3H Ro 25-6981 (4 nM)
T1 construct: from tissue; host or cells: rat forebrain membrane homogenate (Sprague Dawley, Harlan)
Experimental: Radioligand binding assay. Binding experiments to determine binding to NR2B-subtype NMDA receptors were performed on forebrains of 8-10 weeks old male Sprague Dawley rats (Harlan, Netherlands) using ^3H Ro 25-6981 (Mutel V; Buchy D; Klingelschmidt A; Messer J; Bleuel Z; Kemp J A; Richards J G. Journal of Neurochemistry, 1998, 70(5):2147-2155. Rats were decapitated without anesthesia using a Guillotine (approved by animal ethics committee) and the harvested brains were snap-frozen and stored at −80° C. for 3-6 months for membrane preparation.
For membrane preparation, rat forebrains were thawed on ice for 20 minutes in homogenization buffer composed of 50 mM KH2PO4 (pH adjusted to 7.4 with KOH), 1 mM EDTA, 0.005% Triton X 100 and protease inhibitor cocktail (Sigma Aldrich). Thawed brains were homogenized using a Dounce homogenizer and centrifuged at 48000×g for 20 min. The pellet was resuspended in cold buffer and homogenized again using a Dounce homogenizer. Subsequently, the homogenate was aliquoted, snap-frozen and stored at −80° C. for not more than 3-4 months.
To perform the competition binding assay, thawed membrane homogenate was added to each well of a 96-well plate (20 μg/well). […] The filter plates were dried at 50° C. for 20 mins, incubated with microscint 20 for 10 minutes and finally, the counts were read on TopCount (Perkin Elmer).

NR2B-subtype receptors = biological target: T2, NR2B-subtype receptors (Mus musculus, UniProt P35438+Q01097); experiment: Ex vivo occupancy assay; format: in vivo; conditions: for receptor occupancy at 3 mg/kg: mouse, iv
T2 construct: brain-resident NR2B-subtype receptors; from tissue; host or cells: forebrain membrane homogenates of dosed CD-1 mice
Experimental: Ex vivo occupancy assay. […] 7-9 weeks old male CD-1 mice were dosed intravenously in a vehicle consisting of 10% dimethylacetamide, 40% PEG-400, 30% hydroxypropyl betacyclodextrin, and 30% water with experimental compounds and the forebrains were harvested 15 minutes post-dosing by decapitation. The brain samples were immediately snap-frozen and stored at −80° C. On the following day, the dosed brain samples were thawed on ice for 15-20 minutes followed by homogenization using Polytron for 10 seconds in cold homogenization buffer composed of 50 mM KH2PO4 (pH adjusted to 7.4 with KOH), 1 mM EDTA, 0.005% Triton X 100 and protease inhibitor cocktail (Sigma Aldrich). The crude homogenates were further homogenized using a Dounce homogenizer and the homogenized membrane aliquots from all animals were flash-frozen and stored at −80° C. until further use. The whole homogenization process was performed on ice.
For determining occupancy, the membrane homogenates were first thawed on ice and then needle-homogenized using a 25 gauge needle. The homogenized membrane (6.4 mg/ml) was added to a 96-well plate followed by addition of ^3H Ro 25-6981 (6 nM). The reaction mixture was incubated for 5 minutes on a shaker at 4° C. and then harvested onto GF/B filter plates (treated with 0.5% PEI for 1 hr at room temperature). The filter plates were dried at 50° C. for 20 mins, incubated with microscint 20 for 10 minutes and read on TopCount (Perkin Elmer). Each dose or compound group consisted of 4-5 animals. The control group of animals was dosed with vehicle alone. Membrane from each animal was added in triplicates to the assay plate. Non-specific binding was determined using 10 μM Ro 25-6981 added to the wells containing membrane homogenates from vehicle-dosed animals. Specific counts/minute was converted to % occupancy at each dose of a compound for each animal using the following equation:
(§1) [formula] […] Drug levels were determined by mass spectroscopy in the usual manner. Drug levels in the blood plasma were 1018 nM in at this dose, and drug levels in the homogonized brain tissue were 1342 nM.

[2] = Drug levels in blood plasma and homogenized brain tissue by mass spectroscopy; format: in vivo, mouse; conditions: intravenous; for concentration at 15 min: CD-1, mouse, 3 mg/Kg i.v. dose, ex vivo occupancy study, mice; for concentration at 21 min: 3 mg/Kg i.v., end of mouse forced swim test
Experimental: as §1
Mouse Forced swim test (mFST). Forced Swim Test (FST) is an animal model used to assess antidepressant compounds in preclinical studies. The FST was performed similar to the method of Porsolt et al. with modifications (Porsolt R D, Bertin A, Jalfre M. Behavioral despair in mice: a primary screening test for antidepressants. Arch Int Pharmacodyn Thér 1977; 229:327-36). In this paradigm, mice are forced to swim in an inescapable cylinder filled with water. Under these conditions, mice will initially try to escape and eventually develop immobility behavior; this behavior is interpreted as a passive stress-coping strategy or depression-like behavior. Swim tanks were positioned inside a box made of plastic. Each tank was separated from each other by opaque plastic sheets to the height of cylinders. Three mice were subjected to test at a time. Swim sessions were conducted for 6 min by placing mice in individual glass cylinders (46 cm height×20 cm diameter) containing water (20-cm deep, maintained at 24-25° C.). […] The mouse was judged to be immobile whenever it remained floating passively without struggling in the water and only making those movements necessary to keep its nose/head above the water and to keep it afloat. The duration of immobility was evaluated during the total 6 min of the test and expressed as duration (sec) of immobility. Each mouse was tested only once. At the end of each session, mice were dried with a dry cloth and returned to their home cage placed on a thermal blanket to prevent hypothermia. Water was replaced after each trial. All testing sessions were recorded with a video camera (Sony Handicam, Model: DCR-HC38E; PAL) and scoring was done using the Forced Swim Scan, Version 2.0 software (Clever Systems Inc., Reston, Va., USA; see Hayashi E, Shimamura M, Kuratani K, Kinoshita M, Hara H. Automated experimental system capturing three behavioral components during murine forced swim test. Life Sci. 2011 February 28; 88 (9-10): 411-7 and Yuan P, Tragon T, Xia M, Leclair C A, Skoumbourdis A P, Zheng W, Thomas C J, Huang R, Austin C P, Chen G, Guitart X. Phosphodiesterase 4 inhibitors enhance sexual pleasure-seeking activity in rodents. Pharmacol Biochem Behav. 2011; 98(3):349-55). For NCE testing: Test compound was administered in mice 15 min before swim session by i.v. route and immobility time was recorded for next 6 min. […] The NR2B receptor occupancy was determined as reported above and was determined to be 67%.

hERG channels = biological target: T3, hERG channels (Homo sapiens, UniProt Q12809); experiment: hERG electrophysiology assay (patch clamp); format: cell-based; conditions: HEK 293 cells stably expressing hERG channels, tail current
T3 construct: expressed in transfected cells
Experimental: hERG electrophysiology assay. The experimental compounds were assessed for hERG activity on HEK 293 cells stably expressing hERG channels using patch clamp technique. Coverslips plated with hERG expressing cells were placed in the experimental chamber and were perfused with a solution composed of (in mM): 140 NaCl, 4 KCl, 1.8 CaCl2, 1 MgCl2, 10 Glucose, 10 HEPES (pH 7.4, NaOH) at room temperature. Borosilicate patch pipettes had tip resistances of 2-4 Mohms when filled with an internal solution containing: 130 KCl, 1 MgCl2, 1 CaCl2, 10 EGTA, 10 HEPES, 5 ATP-K2 (pH 7.2, KOH). The cells were clamped at −80 mV in whole cell configuration using an Axopatch 200B (Axon instruments, Union City, Calif.) patch clamp amplifier controlled by pClamp (Axon instruments) software. […] First, tail currents were recorded in presence of extracellular solution alone (control) and subsequently, in extracellular solution containing increasing compound concentrations. […] The percentage inhibition at each concentration was calculated as reduction in peak tail current with respect to the peak tail current recorded in the presence of control solution. […]

mice = experiment: Mouse Forced swim test (mFST); format: in vivo; conditions: 3 mg/Kg i.v., 15 min before swim session, 6 min test
Experimental: Mouse Forced swim test (mFST). Forced Swim Test (FST) is an animal model used to assess antidepressant compounds in preclinical studies. The FST was performed similar to the method of Porsolt et al. with modifications (Porsolt R D, Bertin A, Jalfre M. Behavioral despair in mice: a primary screening test for antidepressants. Arch Int Pharmacodyn Thér 1977; 229:327-36). In this paradigm, mice are forced to swim in an inescapable cylinder filled with water. Under these conditions, mice will initially try to escape and eventually develop immobility behavior; this behavior is interpreted as a passive stress-coping strategy or depression-like behavior. […] The duration of immobility was evaluated during the total 6 min of the test and expressed as duration (sec) of immobility. […] All testing sessions were recorded with a video camera (Sony Handicam, Model: DCR-HC38E; PAL) and scoring was done using the Forced Swim Scan, Version 2.0 software (Clever Systems Inc., Reston, Va., USA; see Hayashi E, Shimamura M, Kuratani K, Kinoshita M, Hara H. Automated experimental system capturing three behavioral components during murine forced swim test. Life Sci. 2011 February 28; 88 (9-10): 411-7 and Yuan P, Tragon T, Xia M, Leclair C A, Skoumbourdis A P, Zheng W, Thomas C J, Huang R, Austin C P, Chen G, Guitart X. Phosphodiesterase 4 inhibitors enhance sexual pleasure-seeking activity in rodents. […]

T2 sequence (Q01097 27-1482, other chains not shown): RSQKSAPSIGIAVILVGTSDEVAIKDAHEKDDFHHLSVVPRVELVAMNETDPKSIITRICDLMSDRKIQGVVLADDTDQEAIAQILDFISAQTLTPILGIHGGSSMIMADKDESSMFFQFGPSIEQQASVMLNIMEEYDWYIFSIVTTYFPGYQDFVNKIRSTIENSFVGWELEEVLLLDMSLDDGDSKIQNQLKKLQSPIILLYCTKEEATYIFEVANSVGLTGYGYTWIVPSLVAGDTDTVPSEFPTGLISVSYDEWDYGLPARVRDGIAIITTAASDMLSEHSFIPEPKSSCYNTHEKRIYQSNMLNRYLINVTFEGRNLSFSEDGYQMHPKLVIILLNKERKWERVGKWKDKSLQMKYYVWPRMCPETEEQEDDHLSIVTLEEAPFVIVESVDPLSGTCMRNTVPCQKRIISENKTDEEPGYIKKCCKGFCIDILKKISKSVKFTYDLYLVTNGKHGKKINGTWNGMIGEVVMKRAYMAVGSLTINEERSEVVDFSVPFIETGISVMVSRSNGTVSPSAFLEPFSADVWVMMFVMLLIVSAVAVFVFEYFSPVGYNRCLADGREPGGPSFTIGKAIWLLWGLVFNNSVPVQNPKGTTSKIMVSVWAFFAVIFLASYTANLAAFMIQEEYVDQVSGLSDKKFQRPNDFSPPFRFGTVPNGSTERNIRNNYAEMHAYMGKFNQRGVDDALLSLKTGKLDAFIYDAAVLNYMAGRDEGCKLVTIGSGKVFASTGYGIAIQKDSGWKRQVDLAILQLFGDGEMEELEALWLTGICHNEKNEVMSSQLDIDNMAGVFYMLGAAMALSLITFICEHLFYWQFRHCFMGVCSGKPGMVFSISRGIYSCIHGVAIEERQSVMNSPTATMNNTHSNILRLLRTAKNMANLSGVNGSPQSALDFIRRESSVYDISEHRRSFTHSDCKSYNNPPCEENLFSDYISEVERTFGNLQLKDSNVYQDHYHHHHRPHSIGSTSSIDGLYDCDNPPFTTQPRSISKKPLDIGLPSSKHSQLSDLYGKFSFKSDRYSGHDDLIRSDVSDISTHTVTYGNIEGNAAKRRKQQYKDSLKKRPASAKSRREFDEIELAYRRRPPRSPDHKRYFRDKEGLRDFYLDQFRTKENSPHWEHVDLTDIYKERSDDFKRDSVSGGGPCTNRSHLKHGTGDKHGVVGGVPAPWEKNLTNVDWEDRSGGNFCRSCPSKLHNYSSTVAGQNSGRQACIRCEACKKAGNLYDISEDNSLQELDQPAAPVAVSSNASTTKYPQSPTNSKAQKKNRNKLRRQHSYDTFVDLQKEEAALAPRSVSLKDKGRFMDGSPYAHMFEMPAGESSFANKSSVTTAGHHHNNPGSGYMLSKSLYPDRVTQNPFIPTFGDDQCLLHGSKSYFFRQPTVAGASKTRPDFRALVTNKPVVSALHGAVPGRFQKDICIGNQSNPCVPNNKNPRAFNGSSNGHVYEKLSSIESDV
T1 sequence (Q00960 27-1482, other chains not shown): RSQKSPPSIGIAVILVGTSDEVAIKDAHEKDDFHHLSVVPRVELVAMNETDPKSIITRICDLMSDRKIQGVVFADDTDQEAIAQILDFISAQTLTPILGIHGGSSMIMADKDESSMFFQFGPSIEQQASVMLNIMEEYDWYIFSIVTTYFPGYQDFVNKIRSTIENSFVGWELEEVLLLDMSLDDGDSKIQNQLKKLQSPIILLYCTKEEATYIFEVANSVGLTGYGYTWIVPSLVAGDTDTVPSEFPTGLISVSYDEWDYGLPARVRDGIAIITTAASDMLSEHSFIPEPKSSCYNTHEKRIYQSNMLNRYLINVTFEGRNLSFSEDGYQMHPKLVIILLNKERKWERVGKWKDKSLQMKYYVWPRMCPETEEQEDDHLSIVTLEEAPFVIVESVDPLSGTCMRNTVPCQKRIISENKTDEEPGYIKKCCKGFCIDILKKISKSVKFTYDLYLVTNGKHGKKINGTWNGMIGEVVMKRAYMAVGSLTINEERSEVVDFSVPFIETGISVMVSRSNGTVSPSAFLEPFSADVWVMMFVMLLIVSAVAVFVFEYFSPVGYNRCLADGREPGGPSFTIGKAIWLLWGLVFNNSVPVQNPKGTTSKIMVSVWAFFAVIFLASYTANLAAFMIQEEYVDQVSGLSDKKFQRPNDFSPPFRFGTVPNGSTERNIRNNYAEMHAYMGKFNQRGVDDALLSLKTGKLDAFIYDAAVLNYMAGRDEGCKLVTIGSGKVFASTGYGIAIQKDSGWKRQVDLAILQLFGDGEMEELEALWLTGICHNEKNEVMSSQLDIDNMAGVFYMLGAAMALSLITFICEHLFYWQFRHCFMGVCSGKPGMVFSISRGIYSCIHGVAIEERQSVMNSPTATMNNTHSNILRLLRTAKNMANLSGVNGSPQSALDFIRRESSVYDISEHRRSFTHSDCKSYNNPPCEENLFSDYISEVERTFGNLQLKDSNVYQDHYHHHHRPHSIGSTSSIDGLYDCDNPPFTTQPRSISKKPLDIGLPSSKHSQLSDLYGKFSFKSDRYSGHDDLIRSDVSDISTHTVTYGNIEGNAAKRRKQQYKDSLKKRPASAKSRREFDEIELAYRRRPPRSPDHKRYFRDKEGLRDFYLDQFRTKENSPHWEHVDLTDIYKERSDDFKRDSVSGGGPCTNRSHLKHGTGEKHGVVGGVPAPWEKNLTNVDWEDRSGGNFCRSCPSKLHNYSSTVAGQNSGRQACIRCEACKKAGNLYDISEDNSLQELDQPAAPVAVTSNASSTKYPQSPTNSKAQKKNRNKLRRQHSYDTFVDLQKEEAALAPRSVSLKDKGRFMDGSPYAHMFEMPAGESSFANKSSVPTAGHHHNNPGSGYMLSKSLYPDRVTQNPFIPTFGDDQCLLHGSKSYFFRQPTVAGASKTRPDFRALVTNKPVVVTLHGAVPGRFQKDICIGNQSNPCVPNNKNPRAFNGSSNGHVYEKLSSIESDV
T3 sequence (Q12809 whole entry): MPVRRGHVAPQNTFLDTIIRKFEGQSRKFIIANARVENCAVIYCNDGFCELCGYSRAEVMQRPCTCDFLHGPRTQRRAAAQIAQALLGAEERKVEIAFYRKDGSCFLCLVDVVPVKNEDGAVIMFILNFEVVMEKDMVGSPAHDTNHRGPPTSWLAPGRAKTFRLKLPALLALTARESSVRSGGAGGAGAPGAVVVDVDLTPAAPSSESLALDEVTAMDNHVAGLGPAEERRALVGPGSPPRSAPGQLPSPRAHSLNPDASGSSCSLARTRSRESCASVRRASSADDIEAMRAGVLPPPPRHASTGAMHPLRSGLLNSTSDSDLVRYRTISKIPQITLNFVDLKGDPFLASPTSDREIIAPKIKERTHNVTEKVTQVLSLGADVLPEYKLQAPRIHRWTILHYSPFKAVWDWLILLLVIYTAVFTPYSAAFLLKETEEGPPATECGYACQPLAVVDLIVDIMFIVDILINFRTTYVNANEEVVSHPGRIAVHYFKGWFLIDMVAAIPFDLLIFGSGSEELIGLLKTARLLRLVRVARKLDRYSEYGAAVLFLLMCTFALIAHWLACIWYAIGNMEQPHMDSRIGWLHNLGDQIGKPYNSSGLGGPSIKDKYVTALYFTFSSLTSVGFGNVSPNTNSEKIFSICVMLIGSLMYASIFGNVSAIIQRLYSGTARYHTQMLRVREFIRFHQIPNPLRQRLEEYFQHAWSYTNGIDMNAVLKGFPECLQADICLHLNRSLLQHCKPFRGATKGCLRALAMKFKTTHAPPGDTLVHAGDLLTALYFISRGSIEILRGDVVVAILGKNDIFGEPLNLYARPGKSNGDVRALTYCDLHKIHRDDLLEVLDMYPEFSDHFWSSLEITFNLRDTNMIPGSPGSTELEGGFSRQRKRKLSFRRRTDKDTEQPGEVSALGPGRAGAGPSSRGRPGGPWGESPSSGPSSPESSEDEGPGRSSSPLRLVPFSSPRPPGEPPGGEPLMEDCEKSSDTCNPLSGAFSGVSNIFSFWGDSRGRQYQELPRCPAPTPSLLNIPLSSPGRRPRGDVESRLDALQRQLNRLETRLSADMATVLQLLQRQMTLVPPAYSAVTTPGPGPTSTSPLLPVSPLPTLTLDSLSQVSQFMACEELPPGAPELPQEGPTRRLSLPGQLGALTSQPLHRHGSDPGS

Structure (SMILES) | Ki [1] [µM] | receptor occupancy at 3 mg/kg (NR2B-subtype receptors; 3 mg/Kg i.v. dose, CD-1 mice, forebrains harvested 15 minutes post-dosing) [%] | receptor occupancy at 3 mg/kg (NR2B-subtype receptors; 3 mg/Kg i.v., mice of the forced swim test) [%] | concentration at 15 min ([2]; brain homogenate, read-out: drug levels in the homogonized brain tissue) [nM] | concentration at 15 min ([2]; plasma, read-out: Drug levels in the blood plasma) [nM] | concentration at 21 min ([2]; brain, read-out: Drug levels in the brain) [nM] | concentration at 21 min ([2]; plasma, read-out: Drug levels in the plasma) [nM] | IC50 (hERG channels) [µM] | immobility time (mice) | occupancy of brain-resident NR2B-subtype receptors (in words) (NR2B-subtype receptors; animals after dosing)
Cc1ccc(N2CCC(N3CCN(c4ccc(O)cn4)CC3)C2=O)cc1F (single isomer, unassigned) [Example 14 P1, 1-(3-fluoro-4-methylphenyl)-3-(4-(5-hydroxypyridin-2-yl)piperazin-1-yl)pyrrolidin-2-one] | 0.004 | 86 | 67 | 1340 | 1020 | 410 | 314 | 8.9 | statistically significant decrease | –
O=C1C(N2CCN(c3ncc(O)cn3)CC2)CCN1c1ccc(Cl)c(F)c1 (racemic) [Example 1, 1-(4-chloro-3-fluorophenyl)-3-(4-(5-hydroxypyrimidin-2-yl)piperazin-1-yl)pyrrolidin-2-one] | – | – | – | – | – | – | – | – | – | occupies brain-resident NR2B-subtype receptors

— patent US10961229B2, “Selective NR2B antagonists” (Bristol-Myers Squibb Company, priority 2015, dated 2021)
